{"source": "patent US12171732B2", "about": "“Compositions and use of N-chlorotaurine for treatment and prevention of respiratory infections” (priority 2021, dated 2024)", "key": {"[1]": {"system": "SARS-CoV-2 B.1.351 (Beta)", "type": "cell-based", "details": "1% NCT, 37° C."}, "[2]": {"system": "SARS-CoV-2 B.1.1.7 (Alpha)", "type": "cell-based", "details": "1% NCT, 37° C."}, "[3]": {"system": "SARS-CoV-2", "type": "in vivo, human", "details": "Example 3 patient, Day 5, first 1% NCT nasal spray, 2 puffs in each nostril"}}, "note": "Where two headings read alike, the source gives them in different places."}
{"smiles": "O=S(=O)(O)CCNCl", "note": "[NCT, N-chlorotaurine]", "values": [{"measurement": "reduction of infected cells", "setting": "[1]; after 1 min (not significant, p=0.313)", "value": "0-48%"}, {"measurement": "reduction of infected cells", "setting": "[1]; after 5 min", "value": "54-72%"}, {"measurement": "reduction of infected cells", "setting": "[1]; after 10 min", "value": "82-97%"}, {"measurement": "reduction of infected cells", "setting": "[1]; after 20 min", "value": "99-100%"}, {"measurement": "reduction of infected cells", "setting": "[1]; after 30 min", "value": 100, "unit": "%"}, {"measurement": "reduction of infected cells", "setting": "[2]; after 1 min", "value": "42-54%"}, {"measurement": "reduction of infected cells", "setting": "[2]; after 5 min", "value": "50-71%"}, {"measurement": "reduction of infected cells", "setting": "[2]; after 10 min", "value": "62-99%"}, {"measurement": "reduction of infected cells", "setting": "[2]; after 20 min", "value": "99-100%"}, {"measurement": "reduction of infected cells", "setting": "[2]; after 30 min", "value": 100, "unit": "%"}, {"measurement": "time until nasal passages cleared and nasal secretion dried up", "setting": "[3]", "value": "≤ 30", "unit": "min"}]}
